Literature values in US20110004098A1, “ESTER IMAGING AGENTS” (priority 2008, published 2011).

Tested on: bladder carcinoma in situ
Settings: cystoscopy with Hexvix, as opposed to 58% with white light cystoscopy

CCCCCCOC(=O)CCC(=O)CN.Cl [Hexvix, n-hexyl 5-aminolevulinate hydrochloride]
sensitivity of detecting bladder carcinoma in situ: 97%
